The values that follow come from patent US20250129028A1, “COMPOUNDS AND METHODS FOR YAP/TEAD MODULATION AND INDICATIONS THEREFOR” (Opna Bio SA, priority 2022, published 2025).

The IC50 is the concentration that gives 50% inhibition.

The subject of the assay is TEAD-dependent transcription. Kind of assay: TEAD-dependent transcription cell-based reporter assay (MSTO-211H+12XGTIIC luciferase). Details: species or system human. Particulars: Homo sapiens; MSTO-211H+12XGTIIC cell line, luciferase signal normalized to cell viability, 24 hours compound incubation; read-out: MSTO-211H GMean IC50 (uM) Cell Assay Reporter Cell Variant: TEAD. The method in brief:
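MSTO-211H mesothelioma cells stably carrying a 12xGTIIC TEAD-response-element luciferase reporter, treated with serial compound dilutions for 24 h at 37 °C. Luminescence normalized to CellTiter-Fluor viability signal; % inhibition versus DMSO and 20 μM K-975 controls, IC50 by nonlinear regression.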
(A reporter such as luciferase makes a cellular process visible.)
Take `O=C(CNC(=O)C(F)(F)F)N1CCc2ccc(Oc3ccc(C(F)(F)F)cc3)cc2C1` [P-0100, 2,2,2-trifluoro-N-(2-oxo-2-(7-(4-(trifluoromethyl)-phenoxy)-3,4-dihydroiso-quinolin-2(1H)-yl)ethyl)-acetamide]: the half-inhibitory concentration (IC50) lay within 0.001 to 10 µM. Then `CS(=O)(=O)CCC(=O)N1CCc2ccc(Oc3ccc(C(F)(F)F)cc3)cc2C1CC1CN(c2ccccn2)C1` (stereo not shown) [P-0201, 3-(methylsulfonyl)-1-(1-((1-(pyridin-2-yl)azeti-din-3-yl)methyl)-7-(4-(trifluoromethyl)phen-oxy)-3,4-dihydroisoquin-olin-2(1H)-yl)propan-1-one], with 0.001 to 10 µM; and `N#CC1CC(C(=O)N2CCc3ccc(Oc4ccc(C(F)(F)F)cc4)cc3C2)C1` (stereo not shown) [P-0042, 3-(7-(4-(trifluorometh-yl)phenoxy)-1,2,3,4-tetrahydroisoquinoline-2-carbonyl)cyclobutane-1-carbonitrile], with 0.001 to 10 µM.

As for `CNCCC(=O)N1CCc2ccc(Oc3ccc(C(F)(F)F)cc3)cc2C1` [P-0068, 3-(methylamino)-1-(7-(4-(trifluoromethyl)phen-oxy)-3,4-dihydroisoquin-olin-2(1H)-yl)propan-1-one], the IC50 lay within 0.001 to 10 µM. As for `CNC(=O)c1cncc(N2CCc3ccc(Oc4ccc(C(F)(F)F)cc4)cc3C2)n1` [P-0231, N-methyl-6-(7-(4-(trifluoromethyl)phen-oxy)-3,4-dihydroisoquin-olin-2(1H)-yl)pyrazine-2-carboxamide], the figure is 0.001 to 10 µM; as for `O=C(Cc1nnc[nH]1)N1CCc2c(cccc2Oc2ccc(C(F)(F)F)cc2)C1` [P-0251, 2-(4H-1,2,4-triazol-3-yl)-1-(5-(4-(trifluoromethyl)-phenoxy)-3,4-dihydroiso-quinolin-2(1H)-yl)ethan-1-one], 0.001 to 10 µM; as for `N#CCCC(=O)N1CCc2c(cccc2Oc2ccc(C(F)(F)F)cc2)C1` [P-0239, 4-oxo-4-(5-(4-(trifluoromethyl)phenoxy)-3,4-dihydroisoquinolin-2(1H)-yl)butanenitrile], 0.001 to 10 µM. Consider `O=C(Cc1cn[nH]c1)N1CCc2c(cccc2Oc2ccc(C(F)(F)F)cc2)C1` [P-0247, 2-(1H-pyrazol-4-yl)-1-(5-(4-(trifluoromethyl)-phenoxy)-3,4-dihydroiso-quinolin-2(1H)-yl)ethan-1-one], for which the IC50 is 0.001 to 10 µM.

Turning to `CS(=O)(=O)CCC(=O)N1CCc2c(cccc2Oc2ccc(C(F)(F)F)cc2)C1` [P-0269, 3-(methylsulfonyl)-1-(5-(4-(trifluoromethyl)phen-oxy)-3,4-dihydroisoquin-olin-2(1H)-yl)propan-1-one], the IC50 was 0.001 to 10 µM. As for `O=C(CN1C(=O)CCC1=O)N1CCc2ccc(Oc3ccc(C(F)(F)F)cc3)cc2C1` [P-0044, 1-(2-oxo-2-(7-(4-(trifluoromethyl)phen-oxy)-3,4-dihydroiso-quinolin-2(1H)-yl)-ethyl)pyrrolidine-2,5-dione], the figure is 0.001 to 10 µM. Then `CS(=O)(=O)CCC(=O)N1CCc2ccc(Oc3ccc(C(F)(F)F)cc3)c(/C=C/C3CCNCC3)c2C1` [P-0222, (E)-3-(methylsulfonyl)-1-(8-(2-(piperidin-4-yl)-vinyl)-7-(4-(trifluoro-methyl)phenoxy)-3,4-dihydroisoquinolin-2(1H)-yl)propan-1-one], with 0.001 to 10 µM. Then `CCN(CC)C(=O)N1CCc2ccc(Oc3ccc(C(F)(F)F)cc3)cc2C1` [P-0035, N,N-diethyl-7-(4-(trifluoromethyl)phen-oxy)-3,4-dihydroisoquin-oline-2(1H)-carboxamide], with 0.001 to 10 µM; and `Nc1ccc(C(=O)N2CCc3c(cccc3Oc3ccc(C(F)(F)F)cc3)C2)cn1` [P-0245, (6-aminopyridin-3-yl)(5-(4-(trifluoromethyl)phen-oxy)-3,4-dihydroisoquin-olin-2(1H)-yl)methanone], with 0.001 to 10 µM; and `O=C(CC1CCS(=O)(=O)C1)N1CCc2ccc(Oc3ccc(C(F)(F)F)cc3)cc2C1` (stereo not shown) [P-0059, 2-(1,1-dioxidotetrahydro-thiophen-3-yl)-1-(7-(4-(trifluoromethyl)phen-oxy)-3,4-dihydroisoquin-olin-2(1H)-yl)ethan-1-one], with 0.001 to 10 µM.

`O=C(CCS(=O)(=O)C(F)(F)F)N1CCc2c(cccc2Oc2ccc(C(F)(F)F)cc2)C1` [P-0254, 1-(5-(4-(trifluorometh-yl)phenoxy)-3,4-dihydro-isoquinolin-2(1H)-yl)-3-((trifluoromethyl)sul-fonyl)propan-1-one]: the 50% inhibitory concentration (IC50) lay within 0.001 to 10 µM. Then `O=C(Cc1cn[nH]c1O)N1CCc2c(cccc2Oc2ccc(C(F)(F)F)cc2)C1` [P-0252, 2-(5-hydroxy-1H-pyr-azol-4-yl)-1-(5-(4-(trifluoromethyl)phen-oxy)-3,4-dihydroisoquin-olin-2(1H)-yl)ethan-1-one], with 0.001 to 10 µM. As for `NC(=O)CN1CCc2ccc(Oc3ccc(C(F)(F)F)cc3)cc2C1` [P-0026, 2-(7-(4-(trifluorometh-yl)phenoxy)-3,4-dihydro-isoquinolin-2(1H)-yl)-acetamide], the figure is 0.001 to 10 µM; as for `CCS(=O)(=O)N1CCc2ccc(Oc3ccc(C(F)(F)F)cc3)cc2C1` [P-0002, 2-(ethylsulfonyl)-7-(4-(trifluoromethyl)phen-oxy)-1,2,3,4-tetrahydro-isoquinoline], 0.001 to 10 µM. Then `CN(C)S(=O)(=O)NCC(=O)N1CCc2ccc(Oc3ccc(C(F)(F)F)c(F)c3)cc2C1` [P-0116, N,N-dimethyl-N′-(2-(7-(3-fluoro-4-(trifluoro-methyl)phenoxy)-3,4-dihydroisoquinolin-2(1H)-yl)-2-oxoethyl)-sulfamide], with 0.001 to 10 µM. Take `Cc1noc(CCC(=O)N2CCc3ccc(Oc4ccc(C(F)(F)F)cc4)cc3C2)n1` [P-0062, 3-(3-methyl-1,2,4-oxadi-azol-5-yl)-1-(7-(4-(trifluoromethyl)phen-oxy)-3,4-dihydroisoquin-olin-2(1H)-yl)propan-1-one]: the half-inhibitory concentration (IC50) fell in the range of 0.001 to 10 µM. Then `CN(C(=O)N1CCc2ccc(Oc3ccc(C(F)(F)F)cc3)cc2C1)C1CCS(=O)(=O)C1` (stereo not shown) [P-0065, N-(1,1-dioxidotetra-hydrothiophen-3-yl)-N-methyl-7-(4-(trifluoro-methyl)phenoxy)-3,4-dihydroisoquinoline-2(1H)-carboxamide], with 0.001 to 10 µM. Turning to `O=C(Cc1cnc[nH]1)N1CCc2c(cccc2Oc2ccc(C(F)(F)F)cc2)C1` [P-0242, 2-(1H-imidazol-5-yl)-1-(5-(4-(trifluoromethyl)-phenoxy)-3,4-dihydroiso-quinolin-2(1H)-yl)ethan-1-one], the IC50 is 0.001 to 10 µM. With `O=C1CC(CC(=O)N2CCc3ccc(Oc4ccc(C(F)(F)F)cc4)cc3C2)C(=O)N1` (stereo not shown) [P-0043, 3-(2-oxo-2-(7-(4-(trifluoromethyl)phen-oxy)-3,4-dihydroiso-quinolin-2(1H)-yl)ethyl)-pyrrolidine-2,5-dione], the half-inhibitory concentration (IC50) was 0.001 to 10 µM.

Regarding `O=C(C(O)CO)N1CCc2ccc(Oc3ccc(C(F)(F)F)cc3)cc2C1` (stereo not shown) [P-0007, 2,3-dihydroxy-1-(7-(4-(trifluoromethyl)phen-oxy)-3,4-dihydroisoquin-olin-2(1H)-yl)propan-1-one], the IC50 was in the range of 0.001 to 10 µM. Then `O=C1CCC(CC(=O)N2CCc3ccc(Oc4ccc(C(F)(F)F)cc4)cc3C2)CN1` (stereo not shown) [P-0132, 5-(2-oxo-2-(7-(4-(trifluoromethyl)phen-oxy)-3,4-dihydroisoquin-olin-2(1H)-yl)ethyl)piper-idin-2-one], with 0.001 to 10 µM.
